Values of other authors in article PMC3783256 (Marine Drugs, 2004).

Molecular target: RyR1-FKBP12 complex (Oryctolagus cuniculus, UniProt P11716)
Details: read-out: EC50, weak agonists of the receptor; ref 8a

Chain of RyR1-FKBP12 complex (P11716 whole entry): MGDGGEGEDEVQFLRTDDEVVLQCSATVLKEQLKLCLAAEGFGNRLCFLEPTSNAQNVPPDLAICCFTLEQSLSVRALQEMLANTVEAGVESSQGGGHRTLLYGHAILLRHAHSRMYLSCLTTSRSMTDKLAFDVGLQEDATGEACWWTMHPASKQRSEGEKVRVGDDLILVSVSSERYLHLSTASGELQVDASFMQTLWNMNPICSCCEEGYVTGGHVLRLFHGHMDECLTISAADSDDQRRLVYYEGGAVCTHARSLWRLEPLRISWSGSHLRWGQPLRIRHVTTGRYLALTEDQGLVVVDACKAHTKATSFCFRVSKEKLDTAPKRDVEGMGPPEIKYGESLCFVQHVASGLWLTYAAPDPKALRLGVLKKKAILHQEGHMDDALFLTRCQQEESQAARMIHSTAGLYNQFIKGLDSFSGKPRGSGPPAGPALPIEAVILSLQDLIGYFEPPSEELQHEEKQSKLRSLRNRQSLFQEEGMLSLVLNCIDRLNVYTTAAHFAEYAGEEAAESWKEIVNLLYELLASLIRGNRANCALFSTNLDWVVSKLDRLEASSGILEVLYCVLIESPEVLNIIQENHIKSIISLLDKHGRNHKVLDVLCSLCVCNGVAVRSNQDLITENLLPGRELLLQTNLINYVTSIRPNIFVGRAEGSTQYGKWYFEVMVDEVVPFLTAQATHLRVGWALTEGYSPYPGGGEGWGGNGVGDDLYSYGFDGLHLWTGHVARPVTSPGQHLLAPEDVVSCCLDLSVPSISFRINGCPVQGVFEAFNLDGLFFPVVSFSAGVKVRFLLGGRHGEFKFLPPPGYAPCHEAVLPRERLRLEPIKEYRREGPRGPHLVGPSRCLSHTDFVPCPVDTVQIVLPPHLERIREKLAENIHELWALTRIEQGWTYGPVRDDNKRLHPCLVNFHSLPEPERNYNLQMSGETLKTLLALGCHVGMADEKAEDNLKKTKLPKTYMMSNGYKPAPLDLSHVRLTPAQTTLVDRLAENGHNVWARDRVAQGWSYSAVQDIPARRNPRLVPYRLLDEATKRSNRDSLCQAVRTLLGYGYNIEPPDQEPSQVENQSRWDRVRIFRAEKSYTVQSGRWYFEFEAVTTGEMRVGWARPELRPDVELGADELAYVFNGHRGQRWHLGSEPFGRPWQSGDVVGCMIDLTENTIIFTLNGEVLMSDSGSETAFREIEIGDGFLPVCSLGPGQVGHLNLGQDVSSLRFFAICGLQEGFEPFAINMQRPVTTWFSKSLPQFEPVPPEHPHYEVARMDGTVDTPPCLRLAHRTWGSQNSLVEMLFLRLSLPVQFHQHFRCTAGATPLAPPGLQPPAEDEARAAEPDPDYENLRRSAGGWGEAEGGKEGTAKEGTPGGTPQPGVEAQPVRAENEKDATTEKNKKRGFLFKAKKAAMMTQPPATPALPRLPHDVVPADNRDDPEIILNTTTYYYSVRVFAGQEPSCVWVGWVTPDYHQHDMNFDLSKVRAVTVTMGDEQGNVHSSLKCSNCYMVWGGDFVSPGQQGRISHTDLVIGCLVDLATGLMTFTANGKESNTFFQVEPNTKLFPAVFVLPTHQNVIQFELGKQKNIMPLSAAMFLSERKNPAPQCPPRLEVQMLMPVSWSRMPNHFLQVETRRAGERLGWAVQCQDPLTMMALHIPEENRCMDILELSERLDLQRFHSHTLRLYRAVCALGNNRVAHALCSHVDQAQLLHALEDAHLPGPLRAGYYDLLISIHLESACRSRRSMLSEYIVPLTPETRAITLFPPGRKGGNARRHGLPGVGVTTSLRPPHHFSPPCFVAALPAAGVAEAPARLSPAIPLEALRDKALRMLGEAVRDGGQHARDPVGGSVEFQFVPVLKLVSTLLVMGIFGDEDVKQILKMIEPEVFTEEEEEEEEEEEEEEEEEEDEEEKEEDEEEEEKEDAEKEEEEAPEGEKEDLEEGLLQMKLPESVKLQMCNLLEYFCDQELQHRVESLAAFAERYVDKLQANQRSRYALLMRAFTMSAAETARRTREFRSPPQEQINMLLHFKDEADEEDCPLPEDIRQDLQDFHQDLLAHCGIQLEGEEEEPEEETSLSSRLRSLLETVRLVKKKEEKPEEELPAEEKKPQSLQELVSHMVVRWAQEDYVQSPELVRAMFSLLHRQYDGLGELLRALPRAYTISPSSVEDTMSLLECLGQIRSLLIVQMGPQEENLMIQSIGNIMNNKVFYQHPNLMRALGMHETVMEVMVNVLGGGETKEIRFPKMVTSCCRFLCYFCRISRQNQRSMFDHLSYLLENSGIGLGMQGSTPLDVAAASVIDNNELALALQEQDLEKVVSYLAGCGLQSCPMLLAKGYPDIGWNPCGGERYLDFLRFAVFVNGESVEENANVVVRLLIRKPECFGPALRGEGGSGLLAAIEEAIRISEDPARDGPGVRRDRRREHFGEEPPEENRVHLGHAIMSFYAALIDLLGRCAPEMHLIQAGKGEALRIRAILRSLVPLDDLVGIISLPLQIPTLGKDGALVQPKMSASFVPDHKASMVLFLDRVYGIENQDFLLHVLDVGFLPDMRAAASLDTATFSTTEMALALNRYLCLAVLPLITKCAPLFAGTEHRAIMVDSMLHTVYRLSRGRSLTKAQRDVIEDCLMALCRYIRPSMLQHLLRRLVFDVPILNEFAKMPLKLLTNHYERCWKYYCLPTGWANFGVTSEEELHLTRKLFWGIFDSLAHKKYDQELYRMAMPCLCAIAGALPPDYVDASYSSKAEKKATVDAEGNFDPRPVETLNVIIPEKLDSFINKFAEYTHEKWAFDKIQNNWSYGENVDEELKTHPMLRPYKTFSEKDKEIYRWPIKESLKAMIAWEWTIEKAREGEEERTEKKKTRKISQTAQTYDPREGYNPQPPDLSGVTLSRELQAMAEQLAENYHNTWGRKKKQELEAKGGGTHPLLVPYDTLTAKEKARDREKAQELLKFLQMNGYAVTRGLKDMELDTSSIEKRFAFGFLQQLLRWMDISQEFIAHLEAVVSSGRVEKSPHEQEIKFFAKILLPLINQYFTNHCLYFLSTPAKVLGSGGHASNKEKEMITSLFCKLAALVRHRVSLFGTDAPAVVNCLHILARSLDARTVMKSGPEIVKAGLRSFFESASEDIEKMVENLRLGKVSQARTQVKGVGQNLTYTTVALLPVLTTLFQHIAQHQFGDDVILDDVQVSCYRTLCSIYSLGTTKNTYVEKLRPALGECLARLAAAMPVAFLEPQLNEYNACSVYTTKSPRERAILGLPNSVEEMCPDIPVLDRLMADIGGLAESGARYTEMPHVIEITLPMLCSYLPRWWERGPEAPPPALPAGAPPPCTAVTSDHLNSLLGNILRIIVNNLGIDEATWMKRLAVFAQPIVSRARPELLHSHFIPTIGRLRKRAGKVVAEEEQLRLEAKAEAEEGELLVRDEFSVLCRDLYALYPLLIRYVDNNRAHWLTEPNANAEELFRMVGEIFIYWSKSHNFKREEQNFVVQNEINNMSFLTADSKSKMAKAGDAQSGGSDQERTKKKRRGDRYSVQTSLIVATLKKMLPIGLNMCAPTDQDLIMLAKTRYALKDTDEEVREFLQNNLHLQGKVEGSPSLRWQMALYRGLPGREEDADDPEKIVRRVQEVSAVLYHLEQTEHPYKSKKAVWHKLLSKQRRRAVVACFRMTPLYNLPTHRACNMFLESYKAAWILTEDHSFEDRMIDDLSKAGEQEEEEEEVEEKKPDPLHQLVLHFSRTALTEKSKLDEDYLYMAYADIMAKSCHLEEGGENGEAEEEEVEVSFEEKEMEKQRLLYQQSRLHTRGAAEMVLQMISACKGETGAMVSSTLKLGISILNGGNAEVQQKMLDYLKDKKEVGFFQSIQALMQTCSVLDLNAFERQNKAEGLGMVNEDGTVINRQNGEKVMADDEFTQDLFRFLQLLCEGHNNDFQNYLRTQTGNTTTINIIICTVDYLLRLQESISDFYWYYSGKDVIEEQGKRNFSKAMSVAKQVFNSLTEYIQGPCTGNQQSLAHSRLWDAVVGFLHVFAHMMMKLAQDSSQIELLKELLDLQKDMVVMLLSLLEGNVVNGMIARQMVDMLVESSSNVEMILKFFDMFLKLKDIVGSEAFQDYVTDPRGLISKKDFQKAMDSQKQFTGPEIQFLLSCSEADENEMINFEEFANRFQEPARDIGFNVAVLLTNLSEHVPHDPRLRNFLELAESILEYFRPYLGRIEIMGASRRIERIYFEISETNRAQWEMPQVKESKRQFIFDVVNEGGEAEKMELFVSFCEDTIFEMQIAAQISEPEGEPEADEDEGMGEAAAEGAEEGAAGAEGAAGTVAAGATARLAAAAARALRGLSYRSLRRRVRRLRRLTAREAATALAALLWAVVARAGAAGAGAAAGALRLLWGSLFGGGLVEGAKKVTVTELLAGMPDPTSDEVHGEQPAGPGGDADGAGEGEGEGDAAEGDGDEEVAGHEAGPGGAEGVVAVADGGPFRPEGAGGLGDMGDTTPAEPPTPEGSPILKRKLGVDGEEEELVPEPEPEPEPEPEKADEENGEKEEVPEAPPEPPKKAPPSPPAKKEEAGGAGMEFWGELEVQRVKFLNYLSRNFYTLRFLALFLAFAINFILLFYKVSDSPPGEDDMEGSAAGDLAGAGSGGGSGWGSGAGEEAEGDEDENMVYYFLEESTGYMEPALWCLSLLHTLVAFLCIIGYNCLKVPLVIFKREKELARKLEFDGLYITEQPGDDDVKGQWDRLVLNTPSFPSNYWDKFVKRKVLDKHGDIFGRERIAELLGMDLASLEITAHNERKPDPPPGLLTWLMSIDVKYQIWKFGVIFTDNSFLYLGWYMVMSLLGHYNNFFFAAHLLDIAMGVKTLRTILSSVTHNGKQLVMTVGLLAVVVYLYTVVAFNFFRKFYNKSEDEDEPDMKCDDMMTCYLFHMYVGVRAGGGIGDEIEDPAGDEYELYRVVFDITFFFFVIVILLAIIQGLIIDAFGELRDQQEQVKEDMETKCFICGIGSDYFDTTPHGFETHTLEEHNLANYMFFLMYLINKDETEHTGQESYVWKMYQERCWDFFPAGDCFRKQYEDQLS
Chain of RyR1-FKBP12 complex (P62943 2-108 partner limits assumed): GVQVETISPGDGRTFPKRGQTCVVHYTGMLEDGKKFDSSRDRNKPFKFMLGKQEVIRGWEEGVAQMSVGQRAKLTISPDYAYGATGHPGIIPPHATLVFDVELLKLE

EC50: 13.6 µM
Substance: 15,34-O-di-sulfatobastadin-7
